Counter-ions that a name gives are not always drawn.
Each compound was assayed against T1, human PAH with the R408W mutation (Homo sapiens, UniProt P00439, R408W) (assay: Cell Based Phenylalanine Flux Assay). Settings: A375 cells expressing human R408W PAH; 24 hrs with compound; 13C-Tyrosine by LC-MS; average where tested multiple times; read-out: AC50.
T1 construct: expressed in transfected cells
T1 sequence (P00439 1-452 R408W): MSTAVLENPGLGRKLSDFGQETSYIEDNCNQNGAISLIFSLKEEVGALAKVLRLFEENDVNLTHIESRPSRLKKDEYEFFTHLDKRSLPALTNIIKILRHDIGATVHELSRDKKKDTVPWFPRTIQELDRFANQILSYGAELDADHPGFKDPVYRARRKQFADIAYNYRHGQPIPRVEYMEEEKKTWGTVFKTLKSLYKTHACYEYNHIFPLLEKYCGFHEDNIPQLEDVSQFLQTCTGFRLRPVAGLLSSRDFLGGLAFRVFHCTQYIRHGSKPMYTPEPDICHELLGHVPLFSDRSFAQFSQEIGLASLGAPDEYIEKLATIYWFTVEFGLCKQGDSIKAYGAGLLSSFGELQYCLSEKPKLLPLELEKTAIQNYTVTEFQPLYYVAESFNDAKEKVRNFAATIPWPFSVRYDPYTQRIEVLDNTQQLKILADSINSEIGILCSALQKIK

Row | Compound | AC50 [µM]
1 | O=C(c1ccsn1)N1CCc2[nH]cnc2[C@H]1c1nc2ccccc2[nH]1 [(S)-(4-(1H-benzo[d]imidazol-2-yl)-1,4,6,7-tetrahydro-5H-imidazo[4,5-c]pyridin-5-yl)(isothiazol-3-yl)methanone] | 1 to 5
2 | O=C(c1cnsc1)N1CCc2[nH]cnc2[C@H]1c1nc2ccccc2[nH]1 [(S)-(4-(1H-benzo[d]imidazol-2-yl)-1,4,6,7-tetrahydro-5H-imidazo[4,5-c]pyridin-5-yl)(isothiazol-4-yl)methanone] | 1 to 5
3 | O=C(c1ccns1)N1CCc2[nH]cnc2[C@H]1c1nc2ccccc2[nH]1 [(S)-(4-(1H-benzo[d]imidazol-2-yl)-1,4,6,7-tetrahydro-5H-imidazo[4,5-c]pyridin-5-yl)(isothiazol-5-yl)methanone] | 1 to 5
4 | O=C(c1ccon1)N1CCc2[nH]cnc2[C@H]1c1nc2ccccc2[nH]1 [(S)-(4-(1H-benzo[d]imidazol-2-yl)-1,4,6,7-tetrahydro-5H-imidazo[4,5-c]pyridin-5-yl)(isoxazol-3-yl)methanone] | 1 to 5
5 | O=C(c1ncco1)N1CCc2[nH]cnc2[C@H]1c1nc2ccccc2[nH]1 [(S)-(4-(1H-benzo[d]imidazol-2-yl)-1,4,6,7-tetrahydro-5H-imidazo[4,5-c]pyridin-5-yl)(oxazol-2-yl)methanone] | 1 to 5
6 | O=C(c1cnco1)N1CCc2[nH]cnc2[C@H]1c1nc2ccccc2[nH]1 [(S)-(4-(1H-benzo[d]imidazol-2-yl)-1,4,6,7-tetrahydro-5H-imidazo[4,5-c]pyridin-5-yl)(oxazol-5-yl)methanone] | 1 to 5
7 | O=C(c1ccccn1)N1CCc2[nH]cnc2[C@H]1c1nc2ccccc2[nH]1 [(S)-(4-(1H-benzo[d]imidazol-2-yl)-1,4,6,7-tetrahydro-5H-imidazo[4,5-c]pyridin-5-yl)(pyridin-2-yl)methanone] | 1 to 5
8 | O=C(c1cc2cccnn2c1)N1CCc2[nH]cnc2[C@H]1c1nc2ccccc2[nH]1 [(S)-(4-(1H-benzo[d]imidazol-2-yl)-1,4,6,7-tetrahydro-5H-imidazo[4,5-c]pyridin-5-yl)(pyrrolo[1,2-b]pyridazin-6-yl)methanone] | > 5
9 | O=C(c1cscn1)N1CCc2[nH]cnc2[C@H]1c1nc2ccccc2[nH]1 [(S)-(4-(1H-benzo[d]imidazol-2-yl)-1,4,6,7-tetrahydro-5H-imidazo[4,5-c]pyridin-5-yl)(thiazol-4-yl)methanone] | 1 to 5
10 | Cn1cc(-c2ncc(C(=O)N3CCc4[nH]cnc4[C@H]3c3nc4ccccc4[nH]3)o2)cn1 [(S)-(4-(1H-benzo[d]imidazol-2-yl)-6,7-dihydro-1H-imidazo[4,5-c]pyridin-5(4H)-yl)(2-(1-methyl-1H-pyrazol-4-yl)oxazol-5-yl)methanone hydrochloride] | > 5
11 | Cn1cc(-c2ncc(C(=O)N3CCc4[nH]cnc4[C@H]3c3nc4ccccc4[nH]3)s2)cn1 [(S)-(4-(1H-benzo[d]imidazol-2-yl)-6,7-dihydro-1H-imidazo[4,5-c]pyridin-5(4H)-yl)(2-(1-methyl-1H-pyrazol-4-yl)thiazol-5-yl)methanone] | > 5
12 | Cc1nc(C(C)(C)O)oc1C(=O)N1CCc2[nH]cnc2[C@H]1c1nc2ccccc2[nH]1 [(S)-(4-(1H-benzo[d]imidazol-2-yl)-6,7-dihydro-1H-imidazo[4,5-c]pyridin-5(4H)-yl)(2-(2-hydroxypropan-2-yl)-4-methyloxazol-5-yl)methanone] | > 5
13 | CC(C)(O)c1ncc(C(=O)N2CCc3[nH]cnc3[C@H]2c2nc3ccccc3[nH]2)o1 [(S)-(4-(1H-benzo[d]imidazol-2-yl)-6,7-dihydro-1H-imidazo[4,5-c]pyridin-5(4H)-yl)(2-(2-hydroxypropan-2-yl)oxazol-5-yl)methanone] | > 5
14 | O=C(c1cnc(-c2ccccn2)o1)N1CCc2[nH]cnc2[C@H]1c1nc2ccccc2[nH]1 [(S)-(4-(1H-benzo[d]imidazol-2-yl)-6,7-dihydro-1H-imidazo[4,5-c]pyridin-5(4H)-yl)(2-(pyridin-2-yl)oxazol-5-yl)methanone] | 1 to 5
